Results from US20220125051A1, “PRE-HARVEST DESICCATION METHOD” (SYNGENTA CROP PROTECTION AG, priority 2019, published 2022).
Where two headings read alike, the source gives them in different places.

How the values were obtained:
Experiment in all cases: Post-emergence efficacy, Method A
Assay type in all cases: in vivo
[1] = tested on: Amaranthus palmeri (AMAPA); settings: Amaranthus palmeri, post-emergence, 312 h, evaluated after 13 days
Description: (§1) Seeds of a variety of test species were sown in standard soil in pots. After cultivation for 14 days (post-emergence) under controlled conditions in a glasshouse (at 24/16° C., day/night; 14 hours light; 65% humidity), the plants were sprayed with an aqueous spray solution derived from the dissolution of the technical active ingredient formula (I) in a small amount of acetone and a special solvent and emulsifier mixture referred to as IF50 (11.12% Emulsogen EL360 TM+44.44% N-methylpyrrolidone+44.44% Dowanol DPM glycol ether), to create a 50 g/I solution which was then diluted to required concentration using 0.25% or 1% Empicol ESC70 (Sodium lauryl ether sulphate)+1% ammonium sulphate as diluent. The test plants were then grown in a glasshouse under controlled conditions (at 24/16° C., day/night; 14 hours light; 65% humidity) and watered twice daily. After 13 days the test was evaluated (100=total damage to plant; 0=no damage to plant).
(§2) Ipomoea hederacea (IPOHE), Euphorbia heterophylla (EPHHL), Chenopodium album (CHEAL), Amaranthus palmeri (AMAPA), Lolium perenne (LOLPE), Digitaria sanguinalis (DIGSA), Eleusine indica (ELEIN), Echinochloa crus-galli (ECHCG), Setaria faberi (SETFA)

[2] = tested on: Chenopodium album (CHEAL); settings: Chenopodium album, post-emergence, 312 h, evaluated after 13 days
Description: as §1, §2

[3] = tested on: Digitaria sanguinalis (DIGSA); settings: Digitaria sanguinalis, post-emergence, 312 h, evaluated after 13 days
Description: as §1, §2

[4] = tested on: Echinochloa crus-galli (ECHCG); settings: Echinochloa crus-galli, post-emergence, 312 h, evaluated after 13 days
Description: as §1, §2

[5] = tested on: Eleusine indica (ELEIN); settings: Eleusine indica, post-emergence, 312 h, evaluated after 13 days
Description: as §1, §2

[6] = tested on: Euphorbia heterophylla (EPHHL); settings: Euphorbia heterophylla, post-emergence, 312 h, evaluated after 13 days
Description: as §1, §2

[7] = tested on: Ipomoea hederacea (IPOHE); settings: Ipomoea hederacea, post-emergence, 312 h, evaluated after 13 days
Description: as §1, §2

[8] = tested on: Lolium perenne (LOLPE); settings: Lolium perenne, post-emergence, 312 h, evaluated after 13 days
Description: as §1, §2

[9] = tested on: Setaria faberi (SETFA); settings: Setaria faberi, post-emergence, 312 h; Application rate 500 g/Ha; evaluated after 13 days; 100=total damage to plant, 0=no damage to plant; read-out: Control of weed species after post-emergence application, SETFA
Description: as §1, §2

[10] = Application rate 500 g/Ha, 100=total damage to plant, 0=no damage to plant, read-out: Control of weed species after post-emergence application, CHEAL
[11] = Application rate 500 g/Ha, 100=total damage to plant, 0=no damage to plant, read-out: Control of weed species after post-emergence application, DIGSA
[12] = Application rate 500 g/Ha, 100=total damage to plant, 0=no damage to plant, read-out: Control of weed species after post-emergence application, ECHCG
[13] = Application rate 500 g/Ha, 100=total damage to plant, 0=no damage to plant, read-out: Control of weed species after post-emergence application, ELEIN
[14] = Application rate 500 g/Ha, 100=total damage to plant, 0=no damage to plant, read-out: Control of weed species after post-emergence application, EPHHL
[15] = Application rate 500 g/Ha, 100=total damage to plant, 0=no damage to plant, read-out: Control of weed species after post-emergence application, IPOHE
[16] = Application rate 500 g/Ha, 100=total damage to plant, 0=no damage to plant, read-out: Control of weed species after post-emergence application, LOLPE

| Structure (SMILES) | pest or weed control at 500 g/ha ([1]; Application rate 500 g/Ha, 100=total damage to plant, 0=no damage to plant, read-out: Control of weed species after post-emergence application, AMAPA) [%] | pest or weed control at 500 g/ha [2, 10] [%] | pest or weed control at 500 g/ha [3, 11] [%] | pest or weed control at 500 g/ha [4, 12] [%] | pest or weed control at 500 g/ha [5, 13] [%] | pest or weed control at 500 g/ha [6, 14] [%] | pest or weed control at 500 g/ha [7, 15] [%] | pest or weed control at 500 g/ha [8, 16] [%] | pest or weed control at 500 g/ha [9] [%] | pest or weed control at 500 g/ha ([1]; Application Rate 500 g/Ha, Method A, read-out: Control of weed species after post-emergence application, AMAPA (100=total damage to plant; 0=no damage to plant)) [%] | pest or weed control at 500 g/ha ([2]; Application Rate 500 g/Ha, Method A, read-out: Control of weed species after post-emergence application, CHEAL (100=total damage to plant; 0=no damage to plant)) [%] | pest or weed control at 500 g/ha ([3]; Application Rate 500 g/Ha, Method A, read-out: Control of weed species after post-emergence application, DIGSA (100=total damage to plant; 0=no damage to plant)) [%] | pest or weed control at 500 g/ha ([4]; Application Rate 500 g/Ha, Method A, read-out: Control of weed species after post-emergence application, ECHCG (100=total damage to plant; 0=no damage to plant)) [%] | pest or weed control at 500 g/ha ([5]; Application Rate 500 g/Ha, Method A, read-out: Control of weed species after post-emergence application, ELEIN (100=total damage to plant; 0=no damage to plant)) [%] | pest or weed control at 500 g/ha ([6]; Application Rate 500 g/Ha, Method A, read-out: Control of weed species after post-emergence application, EPHHL (100=total damage to plant; 0=no damage to plant)) [%] | pest or weed control at 500 g/ha ([7]; Application Rate 500 g/Ha, Method A, read-out: Control of weed species after post-emergence application, IPOHE (100=total damage to plant; 0=no damage to plant)) [%] | pest or weed control at 500 g/ha ([8]; Application Rate 500 g/Ha, Method A, read-out: Control of weed species after post-emergence application, LOLPE (100=total damage to plant; 0=no damage to plant)) [%] |
| --- | --- | --- | --- | --- | --- | --- | --- | --- | --- | --- | --- | --- | --- | --- | --- | --- | --- |
| COC(=O)C[n+]1ccc(-c2ncccn2)cn1 [Compound A2, methyl 2-(4-pyrimidin-2-ylpyridazin-1-ium-1-yl)acetate bromide] | 60 | 20 | 40 | 50 | 30 | 90 | 10 | 0 | 80 | – | – | – | – | – | – | – | – |
| CS(=O)(=O)c1cnc(-c2cc[n+](CCS(=O)(=O)[O-])nc2)nc1 [Compound A15] | – | 90 | 60 | 40 | 80 | 20 | 10 | 10 | 50 | – | – | – | – | – | – | – | – |
| CN(C)c1cnc(-c2cc[n+](CCS(=O)(=O)[O-])nc2)nc1 [Compound A18] | – | 0 | 50 | 30 | 60 | 10 | 10 | 10 | 40 | – | – | – | – | – | – | – | – |
| O=S(=O)([O-])CC[n+]1ccc(-c2nccc(C(F)(F)F)n2)cn1 [Compound A23] | – | 80 | 80 | 70 | 100 | 90 | 60 | 70 | 100 | – | – | – | – | – | – | – | – |
| COc1cc(OC)nc(-c2cc[n+](CCS(=O)(=O)[O-])nc2)n1 [Compound A32] | – | 70 | 90 | 70 | 100 | 70 | 40 | 30 | 80 | – | – | – | – | – | – | – | – |
| O=C([O-])CC[n+]1ccc(-c2ncc(Cl)cn2)cn1 [Compound A43] | – | 90 | 90 | 70 | 100 | 80 | 30 | 20 | 100 | – | – | – | – | – | – | – | – |
| CN(C)c1ccnc(-c2cc[n+](CCC(=O)[O-])nc2)n1 [Compound A45] | – | 60 | 80 | 90 | 80 | 50 | 20 | 30 | 100 | – | – | – | – | – | – | – | – |
| Cc1cc(C)nc(-c2cc[n+](CCS(=O)(=O)[O-])nc2)n1 [Compound A48] | – | 100 | 90 | 70 | 100 | 90 | 20 | 70 | 100 | – | – | – | – | – | – | – | – |
| O=C([O-])CC[n+]1ccc(-c2ncc(C3CC3)cn2)cn1 [Compound A51] | – | 70 | 90 | 60 | 90 | 30 | 20 | 60 | 70 | – | – | – | – | – | – | – | – |
| O=S(=O)([O-])CCC[n+]1ccc(-c2ccc(O)nn2)cn1 [Compound A52] | – | 60 | 70 | 60 | 70 | 60 | 20 | 10 | 70 | – | – | – | – | – | – | – | – |
| O=S(=O)([O-])CCC[n+]1ccc(-c2ccnc(Cl)n2)cn1 [Compound A53] | – | 100 | 80 | 70 | 70 | 80 | 70 | 40 | 80 | – | – | – | – | – | – | – | – |
| Cc1nccc(-c2cc[n+](CCC(=O)O)nc2)n1 [Compound A55] | – | 80 | 100 | 90 | 100 | 70 | 70 | 60 | 100 | – | – | – | – | – | – | – | – |
| O=c1cc(-c2cc[n+](CCS(=O)(=O)[O-])nc2)nc[nH]1 [Compound A57] | – | 60 | 80 | 40 | 40 | 60 | 10 | 10 | 60 | – | – | – | – | – | – | – | – |
| COc1nccc(-c2cc[n+](CCS(=O)(=O)[O-])nc2)n1 [Compound A60] | – | 100 | 100 | 90 | 100 | 70 | 60 | 70 | 90 | – | – | – | – | – | – | – | – |
| Cc1cnc(-c2cc[n+](CCS(=O)(=O)[O-])nc2)cn1 [Compound A61] | – | 80 | 100 | 90 | 100 | 90 | 50 | 70 | 100 | – | – | – | – | – | – | – | – |
| Nc1cc(-c2cc[n+](CCC(=O)O)nc2)ncn1 [Compound A163] | – | – | – | – | – | – | – | – | – | 100 | 60 | 50 | 40 | 90 | 50 | 30 | 70 |
